The values below come from patent US4987139A, “FK-520 microbial transformation product” (Merck & Co., Inc., priority 1989, dated 1991).

Structures are written as SMILES. pIC50: −log10 of the molar value. Entries after “also recorded” stand apart in the source; their conditions may differ. Read-outs that look alike come from different tables or passages of the source.

In data set [1] the test system is mouse T lymphocytes. Briefly: T-cell proliferation assay (ionomycin plus PMA induced T-cell stimulation, tritiated thymidine uptake). The following applies: for pIC50: T-cell proliferation. Type of data set: cell-based, mouse (C57B1/6). Here is the method: The principle of this assay is to measure the proliferation of mouse T lymphocytes stimulated with the combination of ionomycin plus PMA. A positive sample in this assay will inhibit T-cell proliferation, as indicated by reduced tritiated thymidine uptake.
Purified L-687,795, as prepared by HPLC above, was dissolved in absolute ethanol at 10 mg/ml.
Spleens from C57B1/6 mice were taken under sterile conditions and gently dissociated in ice-cold RPMI 1640 culture medium (GIBCO, Grand Island, N.Y.) supplemented with 10% heat-inactivated fetal calf serum (GIBCO). Cells were pelleted by centrifugation at 1500 rpm for 8 minutes. Contaminating red cells were removed by treating the pellet with ammonium chloride lysing buffer (GIBCO) for 2 minutes at 4° C. Cold medium was added and cells were again centrifuged at 1500 rpm for 8 minutes. T lymphocytes were then isolated by separation of the cell suspension on nylon wool columns as follows: Nylon wool columns were prepared by packing approximately 4 grams of washed and dried nylon wool into 20 ml plastic syringes. The columns were sterilized by autoclaving at 250° F for 30 minutes. Nylon wool columns were wetted with warm (37° C) culture medium and rinsed with the same medium. Washed spleen cells resuspended in warm medium were slowly applied to the nylon wool. The columns were then incubated in an upright position at 37° C for 1 hour. Non-adherent T lymphocytes were eluted from the columns with warm culture medium and the cell suspensions were spun as above.
Purified T lymphocytes were resuspended at 2.5×10^5 cells/ml in complete culture medium composed of RPMI 1640 medium with 10% heat-inactivated fetal calf serum, […], 1 mM sodium pyruvate, 2×10^-5 M 2-mercaptoethanol and 50 μg/ml gentamycin. Ionomycin was added at 250 ng/ml and PMA at 10 ng/ml. The cell suspension was immediately distributed into 96 well flat-bottom microculture plates (Costar) at 200 μl/well. The control, being the medium without test drug, and various below-indicated dilutions of the sample (above-describedpurified L-687,795) to be tested were then added in triplicate wells at 20 μl/well. L-683,590 was used as a standard. The culture plates were then incubated at 37° C. in a humidified atmosphere of 5% CO2 -95% air for 44 hours. The proliferation of T lymphocytes was assessed by measurement of tritiated thymidine incorporation. After 44 hours of culturing, the cells were pulse-labelled with 2 μ Ci/well of tritiated thymidine (NEN, Cambridge, MA). After another 4 hours of incubation, cultures were harvested on glass fiber filters using a multiple sample harvester. Radioactivity of filter discs corresponding to individual wells was measured by standard liquid scintillation counting methods (Betacounter). Mean counts per minute of replicate wells were calculated and the results expressed as percent inhibition of tritiated thymidine uptake (proliferation) as follows: [formula]
1. Mouse T cell cultures were pulsed with ^3 Hthymidine for 4 hours
prior to harvesting at 48 hours.

A short description of data set [2]: Solubility (physical characteristics). Type of data set: physicochemical. The following applies: methanol.
The conditions of data set [3]: reputed; EPO Publication No. 0184162; cited from earlier work.

Broadly, the inhibition is the drop in the measured response relative to a control, in per cent. As a reminder, the pIC50 is the IC50 on a negative log10 scale, so that one unit is a factor of ten.

Turning to `CCC1C=C(C)CC(C)CC(O)C(O)C2CC(C)C(O)(O2)C(=O)C(=O)N2CCCCC2C(=O)OC(C(C)=CC2CCC(O)C(O)C2)C(C)C(O)CC1=O` [L-687,795], in data set [1] (50 units/m recombinant human IL2 added at initiation of culture), the “Inhibition of proliferation on addition of recombinant human IL2” value is recorded as “reversed”. The inhibition at 0.39 µg/mL in data set [1] (Mus musculus, T-lymphocyte, 390 ng/ml, ionomycin + PMA, 48 h) was 0%. The inhibition at 0.57 µg/mL in data set [1] (Mus musculus, T-lymphocyte, 570 ng/ml, ionomycin + PMA, 48 h) worked out at 2%. The inhibition at 0.87 µg/mL in data set [1] (Mus musculus, T-lymphocyte, 870 ng/ml, ionomycin + PMA, 48 h) amounted to 29%. The inhibition at 1.3 µg/mL in data set [1] (Mus musculus, T-lymphocyte, 1,300 ng/ml, ionomycin + PMA, 48 h) was 60%. Further, in data set [1] (Mus musculus, T-lymphocyte, 1,900 ng/ml, ionomycin + PMA, 48 h), the inhibition at 1.9 µg/mL stood at 78%. Moreover, the inhibition at 2.9 µg/mL in data set [1] (Mus musculus, T-lymphocyte, 2,900 ng/ml, ionomycin + PMA, 48 h) was 81%. The inhibition at 4.4 µg/mL in data set [1] (Mus musculus, T-lymphocyte, 4,400 ng/ml, ionomycin + PMA, 48 h) came to 88%. For the same molecule, the inhibition at 6.6 µg/mL in data set [1] (Mus musculus, T-lymphocyte, 6,600 ng/ml, ionomycin + PMA, 48 h) amounted to 90%. Besides, the inhibition at 10 µg/mL in data set [1] (Mus musculus, T-lymphocyte, 10,000 ng/ml, ionomycin + PMA, 48 h) was 91%. In addition, the pIC50 in data set [1] (Mus musculus, T-lymphocyte, general range, read-out: IC50, generally in the range of) is 5.85 to 6.00; in data set [1] (Mus musculus, T-lymphocyte, read-out: IC50) it was 5.93. The “inhibition of T-cell activation / immunosuppressive activity by the T-cell proliferation assay” value in data set [1] (qualitative) is recorded as “positive inhibition of T-cell activation; also recorded: positive immunosuppressive activity”. Moreover, the Solubility entry in data set [2] was “Solubility in methanol”.
For the molecule `CC[C@@H]1/C=C(\C)C[C@H](C)C[C@H](OC)[C@H]2O[C@@](O)(C(=O)C(=O)N3CCCC[C@H]3C(=O)O[C@H](/C(C)=C/[C@@H]3CC[C@@H](O)[C@H](OC)C3)[C@H](C)[C@@H](O)CC1=O)[C@H](C)C[C@@H]2OC` [L-683,590, reference compound], in data set [1] (Mus musculus, T-lymphocyte, 10 ng/ml, standard), the inhibition at 0.01 µg/mL turned out to be 99%.
`C=CC[C@@H]1/C=C(\C)C[C@H](C)C[C@H](OC)[C@H]2O[C@@](O)(C(=O)C(=O)N3CCCC[C@H]3C(=O)O[C@H](/C(C)=C/[C@@H]3CC[C@@H](O)[C@H](OC)C3)[C@H](C)[C@@H](O)CC1=O)[C@H](C)C[C@@H]2OC` [FK-506]: the “times more effective than cyclosporin” value in data set [3] is on record as 100 times.
